Test results published in patent US20140288040A1, “SUBSTITUTED BENZYLAMINE COMPOUNDS, THEIR USE IN MEDICINE, AND IN PARTICULAR THE TREATMENT OF HEPATITIS C VIRUS (HCV) INFECTION” (ASTEX THERAPEUTICS LIMITED, priority 2011, published 2014).
pIC50: −log10 of the molar value. Where a name gives a salt, the structure may show the parent alone. Read-outs that look alike come from different tables or passages of the source.

Columns and labels:
[1] = biological target: T1, HCV NS3 protease (full length NS34a) (Hepatitis C virus genotype 1b, UniProt P26663); assay: HCV NS3 protease assay (FRET, full length NS34a); format: biochemical
T1 construct: The protease activity of the full length NS34a was measured using a FRET-based assay; made in house
T1 sequence (P26663 1658-1711): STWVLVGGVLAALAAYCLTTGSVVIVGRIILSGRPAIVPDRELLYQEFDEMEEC
T1 sequence (P26663 1027-1657): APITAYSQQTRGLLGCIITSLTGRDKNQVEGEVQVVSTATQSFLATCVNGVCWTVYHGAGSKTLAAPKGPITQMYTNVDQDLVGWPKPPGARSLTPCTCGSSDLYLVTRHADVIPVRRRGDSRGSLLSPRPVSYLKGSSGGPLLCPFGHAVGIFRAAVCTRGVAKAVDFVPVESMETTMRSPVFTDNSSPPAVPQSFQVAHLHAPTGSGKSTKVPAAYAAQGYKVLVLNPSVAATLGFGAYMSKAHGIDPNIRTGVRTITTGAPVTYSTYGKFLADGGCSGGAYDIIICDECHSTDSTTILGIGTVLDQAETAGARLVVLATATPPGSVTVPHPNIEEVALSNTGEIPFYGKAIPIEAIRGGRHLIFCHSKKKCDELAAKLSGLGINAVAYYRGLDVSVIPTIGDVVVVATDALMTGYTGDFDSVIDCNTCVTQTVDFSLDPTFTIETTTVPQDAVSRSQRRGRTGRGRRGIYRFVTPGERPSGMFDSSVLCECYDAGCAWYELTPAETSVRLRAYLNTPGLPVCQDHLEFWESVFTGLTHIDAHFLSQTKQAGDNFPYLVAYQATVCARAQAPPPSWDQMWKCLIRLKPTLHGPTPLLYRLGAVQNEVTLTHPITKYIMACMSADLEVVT
Summary of the method: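 FRET readout over 30 minutes at room temperature, with IC50 fitted to initial rates from replicate curves. Enzyme was full-length NS34a; substrate a peptide from the NS4AB cleavage site labelled with QXL520 and 5-FAMsp; buffer 50 mM Tris pH8 containing 20 mM DTT, 1% CHAPS, 10% glycerol and 5% DMSO.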

[2] = test system: HCV subgenomic replicon in Huh-7 cells; assay: Replicon assay, EC50 luciferase readout; format: cell-based, hepatitis C virus (HCV); details: Hepatitis C virus, Huh-7, 72 h, single value, or second value of a pair x:y
Summary of the method: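 Huh-7 cells carrying a subgenomic HCV replicon (NS3-NS5b, firefly luciferase-neo fusion) were treated with compound for 72 h at 37°C, 5% CO2. EC50 derived from Bright-Glo luciferase signal as a proxy for HCV RNA; cell viability measured in parallel by Alamar blue.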

[3] = protease activity of full length NS34a, FRET peptide substrate, read-out: Activity IC50
[4] = Huh-7 replicon cells, 72 h, read-out: Activity EC50 (μM) (EC50 luciferase readout)
[5] = IC50 values of 10-150 μM against the protease activity of the full length NS34a, or at least 40% inhibition of protease activity at a concentration of 100 μM

| SMILES | pIC50 [1, 3] | EC50 [2, 4] [µM] | pIC50 [1, 5] | EC50 ([2]; read-out: Activity EC50 (μM) (EC50 luciferase readout), Huh-7 replicon cells, 72 h) [µM] | inhibition at 0.03 µM ([1]; read-out: Activity % inhibition @ 0.03 μM, 0.03 μM compound) [%] |
| --- | --- | --- | --- | --- | --- |
| CCNCCNC(=O)C[C@H](C)N[C@H](CC)c1ccc(Cl)c(Oc2ccccc2)c1F [Example 316] | 6.40 | > 10 |  |  |  |
| NC(c1ccc(=O)[nH]c1)c1ccc(F)c(Oc2ccccc2)c1F (centres unmarked) [Example 73, 5-[Amino-(2,4-difluoro-3-phenoxy-phenyl)-methyl]-1H-pyridin-2-one] |  | > 30 | 3.82 to 5.00 |  |  |
| CC[C@@H](N[C@@H](C)CC(N)=O)c1ccc(Cl)c(Oc2ccc(C#N)c(OC)c2)c1F [Example 210] | 6.80 |  |  | 0.2 |  |
| NC(CC1CCNCC1)c1ccc(F)c(Oc2ccccc2)c1F (centres unmarked) [Example 72B, 1-(2,4-Difluoro-3-phenoxy-phenyl)-2-piperidin-4-yl-ethylamine. dihydrochloride] | 6.15 | 0.26 |  |  |  |
| C[C@H](CO)N[C@@H](CC1CCNCC1)c1ccc(F)c(Oc2ccccc2)c1F [Example 95B, (R)-2-[(S)-1-(2,4-Difluoro-3-phenoxy-phenyl)-2-piperidin-4-yl-ethylamino]-propan-1-ol.dihydrochloride] | 6.39 | 0.16 |  |  |  |
| CCC(NCCCO)c1ccc(F)c(Oc2ccccc2)c1F (centres unmarked) [Example 56, 3-[1-(2,4-Difluoro-3-phenoxy-phenyl)-propylamino]-propan-1-ol.hydrochloride] | 5.96 | 11 |  |  |  |
| N[C@H](CC1CCNCC1)c1ccc(F)c(Oc2ccccc2)c1F [Example 82] | 5.72 | 0.79 |  |  |  |
| CC[C@@H](N[C@@H](C)CC(N)=O)c1ccc(Cl)c(Oc2ccc(N)c(Cl)c2)c1F [Example 266C, (S)-3-{(R)-1-[3-(4-Amino-3-chloro-phenoxy)-4-chloro-2-fluoro-phenyl]-propyl-amino}-butyramide.dihydrochloride] | 7.06 | 0.023 |  |  |  |
| CC[C@H](NCCC(=O)NCC#N)c1ccc(F)c(Oc2ccccc2)c1F [Example 91, N-Cyanomethyl-3-[(S)-1-(2,4-difluoro-3-phenoxy-phenyl)-propylamino]-propionamide.hydrochloride] | 5.62 | > 10 |  |  |  |
| CC[C@@H](N[C@@H](C)c1ccc[nH]c1=O)c1ccc(Cl)c(Oc2ccccc2)c1F (single isomer, unassigned) [Example 315] | 5.46 | > 10 |  |  |  |
| CC[C@@H](N[C@@H](C)CC(N)=O)c1ccc(Cl)c(Oc2ccc(NC(C)=O)c(C)c2)c1F [Example 244, (S)-3-{(R)-1-[3-(4-Acetylamino-3-methyl-phenoxy)-4-chloro-2-fluoro-phenyl]-propylamino}-butyramide.hydrochloride] | 6.33 | 0.099 |  |  |  |
| CC[C@@H](N[C@@H](C)CC(N)=O)c1ccc(Cl)c(Oc2ccc(N)c(F)c2)c1F [Example 333] | 7.21 | 0.057 |  |  |  |
| CC[C@@H](N)c1ccc(Cl)c(Oc2ccc(N)c(C)c2)c1F [Example 112, 4-[3-((R)-1-Amino-propyl)-6-chloro-2-fluoro-phenoxy]-2-methyl-phenylamine.dihydrochloride] | 6.80 | > 10 |  |  |  |
| CC[C@@H](N)c1ccc(F)c(Oc2ccccc2)c1F [Example 11] | 5.66 | 0.8 |  |  |  |
| N[C@@H](CC1CCNCC1)c1ccc(F)c(Oc2ccccc2)c1F [Example 93] | 6.10 | 1.8 |  |  |  |
| CC[C@@H](N[C@@H](C)CC(N)=O)c1ccc(Cl)c(Oc2ccc(C#N)c(F)c2)c1F [Example 213] | 6.89 | 5.2 |  |  |  |
| C[C@H](CC(=O)NCCN)NCc1ccc(Cl)c(Oc2ccccc2)c1F [Example 107, (R)—N-(2-Amino-ethyl)-3-(4-chloro-2-fluoro-3-phenoxy-benzylamino)-butyramide.dihydrochloride] | 6.66 | > 10 |  |  |  |
| CC[C@@H](N[C@@H](C)CC(N)=O)c1ccc(Cl)c(Oc2ccc(-c3cnco3)cc2)c1F [Example 219] | 6.66 | 0.32 |  |  |  |
| CC[C@H](N)c1ccc(Cl)c(Oc2ccc(N)nc2)c1F [Example 114] | 6.00 | > 10 |  |  |  |
| NC(c1ccc(F)c(Oc2ccccc2)c1F)C1CCNCC1 (centres unmarked) [Example 14, C-(2,4-Difluoro-3-phenoxy-phenyl)-C-piperidin-4-yl-methylamine. dihydrochloride] | 5.77 | 2 |  |  |  |
| CC[C@H](N[C@H](C)CC(N)=O)c1ccc(Cl)c(Oc2ccccc2)c1Cl [Example 325] |  | > 10 | 3.82 to 5.00 |  |  |
| CC[C@@H](N[C@@H](C)CC(=O)N[C@@H]1CCNC1)c1ccc(Cl)c(Oc2ccccc2)c1F [Example 263] | 6.41 | 1.6 |  |  |  |
| CC[C@@H](N[C@@H](C)CC(N)=O)c1ccc(Cl)c(Oc2cccc(C#N)c2)c1F [Example 226] | 6.70 | 2.9 |  |  |  |

| SMILES | pIC50 [1, 3] | EC50 [2, 4] [µM] | pIC50 [1, 5] | EC50 ([2]; read-out: Activity EC50 (μM) (EC50 luciferase readout), Huh-7 replicon cells, 72 h) [µM] | inhibition at 0.03 µM ([1]; read-out: Activity % inhibition @ 0.03 μM, 0.03 μM compound) [%] |
| --- | --- | --- | --- | --- | --- |
| CC(C)C(N)c1ccc(F)c(Oc2ccccc2)c1F (centres unmarked) [Example 1, 1-(2,4-Difluoro-3-phenoxy-phenyl)-2-methyl-propylamine. hydrochloride] | 5.60 | 15 |  |  |  |
| CCC(NCC1CC1)c1ccc(F)c(Oc2ccccc2)c1F (centres unmarked) [Example 22] | 5.49 | 6.6 |  |  |  |
| CCC(NC(C)CC(=O)NC)c1ccc(F)c(Oc2ccccc2)c1F (centres unmarked) [Example 49] | 5.49 | > 30 |  |  |  |
| OCCN[C@@H](CC1CCNCC1)c1ccc(F)c(Oc2ccccc2)c1F [Example 101] | 5.89 | 0.23 |  |  |  |
| N[C@H]1CC[C@H](CNCc2ccc(Cl)c(Oc3ccccc3)c2F)CC1 [Example 289] | 5.96 | 0.18 |  |  |  |
| CC[C@@H](N[C@@H](C)C(=O)NCCCN)c1ccc(Cl)c(Oc2ccccc2)c1F [Example 331] |  | > 10 |  |  | 49.5 |
| CC[C@H](Nc1ncc[nH]1)c1ccc(Cl)c(Oc2ccccc2)c1F [Example 275, [(S)-1-(4-Chloro-2-fluoro-3-phenoxy-phenyl)-propyl]-(1H-imidazol-2-yl)-amine.hydrochloride] | 6.39 | > 10 |  |  |  |
| CC[C@H](N)c1ccc(F)c(Oc2ccccc2)c1F [Example 52] | 5.74 | 9.4 |  |  |  |
| Fc1ccc(CNc2ccncc2)c(F)c1Oc1ccccc1 [Example 110, (2,4-Difluoro-3-phenoxy-benzyl)-pyridin-4-yl-amine.hydrochloride] | 5.59 | 2.3 |  |  |  |
| CCC(NC(C)c1c[nH]cn1)c1ccc(F)c(Oc2ccccc2)c1F (centres unmarked) [Example 67] | 5.47 | > 30 |  |  |  |
| CC(C)NCC(N)c1ccc(F)c(Oc2ccccc2)c1F (centres unmarked) [Example 19, 1-(2,4-Difluoro-3-phenoxy-phenyl)-N*2*-isopropyl-ethane-1,2-diamine. dihydrochloride] | 5.01 | 10 |  |  |  |
| CC[C@@H](N[C@H](C)CC(N)=O)c1ccc(Cl)c(Oc2ccc(N)nc2)c1F [Example 123] | 5.80 | 4.7 |  |  |  |
| CCC(NCc1cc[nH]n1)c1ccc(F)c(Oc2ccccc2)c1F (centres unmarked) [Example 21] |  | > 30 | 3.82 to 5.00 |  |  |
| CC[C@@H](CC(N)=O)N[C@H](CC)c1ccc(Cl)c(Oc2ccccc2)c1F [Example 134B, (S)-3-[(R)-1-(4-Chloro-2-fluoro-3-phenoxy-phenyl)-propylamino]-pentanoic acid amide.hydrochloride] | 7.08 | 0.4 |  |  |  |
| NC(C1=CCNCC1)c1ccc(F)c(Oc2ccccc2)c1F (centres unmarked) [Example 13, C-(2,4-Difluoro-3-phenoxy-phenyl)-C-(1,2,3,6-tetrahydro-pyridin-4-yl)-methylamine. dihydrochloride] | 5.51 | 2 |  |  |  |
| CC[C@@H](N[C@@H](C)CC(=O)N[C@H]1C[C@H](N)C1)c1ccc(Cl)c(Oc2ccccc2)c1F [Example 319] | 5.46 | 8.6 |  |  |  |
| Cc1cc(Oc2c(F)ccc(CNc3ccncc3)c2F)ccc1N [Example 225B, [3-(4-Amino-3-methyl-phenoxy)-2,4-difluoro-benzyl]-pyridin-4-yl-amine. hydrochloride] | 6.14 | 0.68 |  |  |  |
| CC[C@@H](N[C@@H](C)CC(N)=O)c1ccc(Cl)c(Oc2ccc(C#N)nc2)c1F [Example 246] | 6.77 | > 10 |  |  |  |
| N[C@H]1CC[C@@H](NCc2ccc(F)c(Oc3ccccc3)c2F)CC1 [Example 283] | 6.12 | 0.27 |  |  |  |
| CC[C@@H](N[C@@H](C)CC(N)=O)c1ccc(Cl)c(Oc2ccc(N)nc2)c1F [Example 124] | 6.96 | 0.28 |  |  |  |
| CC[C@@H](N[C@@H](C)CC(=O)NCCNCc1ccccc1)c1ccc(Cl)c(Oc2ccccc2)c1F [Example 265] | 5.96 | 0.47 |  |  |  |
| CC[C@@H](N[C@@H](C)CC(=O)NN)c1ccc(Cl)c(Oc2ccccc2)c1F [Example 154] | 6.74 | 17 |  |  |  |
| CC[C@@H](N[C@@H](C)CC(N)=O)c1ccc(Cl)c(Oc2cccc(NS(C)(=O)=O)c2)c1F [Example 196] | 6.38 | 0.27 |  |  |  |
